The source made the active and inactive calls. No cut-off for these calls is given here.
How the values were obtained:
Cholinesterase = Cholinesterase (Equus caballus, UniProt P81908)
Description: Inhibition of equine serum BuChE using butyrylthiocholine iodide as substrate preincubated for 5 mins followed by substrate addition measured at 1 min interval for 3 mins by Ellmans method

Acetylcholinesterase = Acetylcholinesterase (Torpedo californica, UniProt P04058)
Description: Inhibition of Torpedo californica AChE using acetylthiocholine iodide as substrate preincubated for 5 mins followed by substrate addition measured at 1 min interval for 3 mins by Ellman's method

[1] = Metal chelating activity assessed as compound-Fe2+ complex formation at 25 uM after 30 mins by UV-spectrophotometric analysis; type: functional
[2] = Metal chelating activity assessed as compound-Cu2+ complex formation at 25 uM after 30 mins by UV spectrophotometric analysis; type: functional
PC-12 [3] = test: Neuroprotective activity against H202-induced toxicity in rat PC12 cells assessed as increase in cell viability after 24 hrs by MTT assay; type: functional, cell-based
PC-12 [4] = test: Neuroprotective activity against Abeta42-induced toxicity in rat PC12 cells assessed as increase in cell viability after 24 hrs by MTT assay; type: functional, cell-based
PC-12 [5] = test: Cytotoxicity against rat PC12 cells at 0.1 to 10 uM after 24 hrs by MTT assay; type: cell-based; conditions: pc-12, 24 h
PC-12 [6] = test: Neuroprotective activity against H202-induced toxicity in rat PC12 cells assessed as increase in cell viability at 0.1 to 10 uM after 24 hrs by MTT assay; type: functional, cell-based
PC-12 [7] = test: Neuroprotective activity against Abeta42-induced toxicity in rat PC12 cells assessed as increase in cell viability at 0.1 to 10 uM after 24 hrs by MTT assay; type: functional, cell-based

Cholinesterase, sequence (P81908 whole entry): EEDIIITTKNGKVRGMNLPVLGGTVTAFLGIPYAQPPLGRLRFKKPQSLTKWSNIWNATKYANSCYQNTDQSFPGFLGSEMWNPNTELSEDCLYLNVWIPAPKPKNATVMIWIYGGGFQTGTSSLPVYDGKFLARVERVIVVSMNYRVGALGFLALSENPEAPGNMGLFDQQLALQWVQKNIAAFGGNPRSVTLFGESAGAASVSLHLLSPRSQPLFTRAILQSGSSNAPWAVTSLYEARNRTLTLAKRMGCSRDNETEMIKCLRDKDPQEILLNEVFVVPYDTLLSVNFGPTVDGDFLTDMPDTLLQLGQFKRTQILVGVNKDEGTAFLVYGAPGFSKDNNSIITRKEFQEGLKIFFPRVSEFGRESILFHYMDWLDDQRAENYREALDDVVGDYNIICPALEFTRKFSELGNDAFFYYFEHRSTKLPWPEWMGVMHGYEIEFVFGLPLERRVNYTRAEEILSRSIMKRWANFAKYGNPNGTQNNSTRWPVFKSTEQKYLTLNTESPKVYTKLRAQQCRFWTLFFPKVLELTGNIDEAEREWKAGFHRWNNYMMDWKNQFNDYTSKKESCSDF
Acetylcholinesterase, sequence (P04058 whole entry): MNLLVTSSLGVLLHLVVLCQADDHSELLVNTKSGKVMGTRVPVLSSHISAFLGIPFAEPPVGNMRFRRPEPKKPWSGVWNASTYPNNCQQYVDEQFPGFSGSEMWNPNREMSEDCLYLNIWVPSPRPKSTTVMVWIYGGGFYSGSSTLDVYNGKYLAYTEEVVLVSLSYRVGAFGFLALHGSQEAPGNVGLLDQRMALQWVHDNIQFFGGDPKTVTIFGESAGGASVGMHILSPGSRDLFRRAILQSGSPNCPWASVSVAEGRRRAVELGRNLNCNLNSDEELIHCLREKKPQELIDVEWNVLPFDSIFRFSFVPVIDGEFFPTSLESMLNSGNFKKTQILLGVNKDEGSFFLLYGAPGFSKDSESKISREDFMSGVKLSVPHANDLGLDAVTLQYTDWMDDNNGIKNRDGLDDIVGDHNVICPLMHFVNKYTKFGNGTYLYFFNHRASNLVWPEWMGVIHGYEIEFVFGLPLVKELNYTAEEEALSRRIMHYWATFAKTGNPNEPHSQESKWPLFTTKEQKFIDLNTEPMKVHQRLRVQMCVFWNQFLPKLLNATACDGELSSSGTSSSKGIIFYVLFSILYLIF

Row | Structure (SMILES) | IC50 (Cholinesterase) [µM] | IC50 (Acetylcholinesterase) [µM] | further results
1 | CC(=O)CC(=O)NCCCNc1c2c(nc3ccccc13)CCCC2 | 0.06 | 0.24 | 
2 | COc1cc(CC(C(C)=O)C(=O)NCCCCNc2c3c(nc4ccccc24)CCCC3)ccc1O (stereo not drawn) | 3.38 | 3.68 | 
3 | COc1cc(/C=C(\C(C)=O)C(=O)NCCCCCCNc2c3c(nc4ccccc24)CCCC3)ccc1O | 1.5 | 0.29 | Activity [1]: Active; Activity [2]: Active
4 | CC(=O)CC(=O)NCCNc1c2c(nc3ccccc13)CCCC2 | 0.31 | 0.46 | 
5 | COc1cc(/C=C(\C(C)=O)C(=O)NCCCNc2c3c(nc4ccccc24)CCCC3)ccc1O | 1.87 | 1.26 | 
6 | CC(=O)C(Cc1ccc(O)cc1)C(=O)NCCCNc1c2c(nc3ccccc13)CCCC2 (stereo not drawn) | 0.83 | 8.76 | 
7 | CC(=O)CC(=O)NCCCCNc1c2c(nc3ccccc13)CCCC2 | 0.16 | 0.09 | Activity [1]: Active; Activity [2]: Active
8 | CC(=O)CC(=O)NCCCCCCNc1c2c(nc3ccccc13)CCCC2 | 0.22 | 0.57 | 
9 | COc1cc(/C=C(\C(C)=O)C(=O)NCCCCNc2c3c(nc4ccccc24)CCCC3)ccc1O | 2.11 | 2.1 | 
10 | COc1cc(CC(C(C)=O)C(=O)NCCCNc2c3c(nc4ccccc24)CCCC3)ccc1O (stereo not drawn) | 1.31 | 5.71 | 
11 | CC(=O)C(Cc1ccc(O)cc1)C(=O)NCCCCNc1c2c(nc3ccccc13)CCCC2 (stereo not drawn) | 0.39 | 1.99 | 
12 | CC(=O)/C(=C\c1ccc(O)cc1)C(=O)NCCCCNc1c2c(nc3ccccc13)CCCC2 | 4.77 | 3.8 | 
13 | CC(=O)/C(=C\c1ccc(O)cc1)C(=O)NCCCCCCNc1c2c(nc3ccccc13)CCCC2 | 2.24 | 2.95 | 
14 | CC(=O)/C(=C\c1ccc(O)cc1)C(=O)NCCCNc1c2c(nc3ccccc13)CCCC2 | 1.6 | 9.64 | 
15 | COc1cc(CC(C(C)=O)C(=O)NCCCCCCNc2c3c(nc4ccccc24)CCCC3)ccc1O (stereo not drawn) | 0.22 | 0.08 | Activity (PC-12 [3]): Dose-dependent effect; Activity [1]: Active; Activity [2]: Active; Activity (PC-12 [4]): Dose-dependent effect; Activity (PC-12 [5]): Non-Toxic
16 | COc1cc(/C=C/C(=O)CC(=O)/C=C/c2ccc(O)c(OC)c2)ccc1O |  |  | Activity (PC-12 [6]): Active; Activity (PC-12 [7]): Active
17 | CC(=O)C(Cc1ccc(O)cc1)C(=O)NCCCCCCNc1c2c(nc3ccccc13)CCCC2 (stereo not drawn) | 0.2 | 0.13 | 

From ChEMBL document CHEMBL4038274, “Design, synthesis and biological evaluation of multifunctional tacrine-curcumin hybrids as new cholinesterase inhibitors with metal ions-chelating and neuroprotective property” (Bioorg Med Chem, 2017)
